Patent EP0151996A2, “Process for the Preparation of a double-chain plasminogen activator” (Asahi Kasei Kogyo Kabushiki Kaisha, priority 1984, dated 1985)
Where two headings read alike, the source gives them in different places.

What was measured:
[1] = molecular target: T1, single-chain plasminogen activator (Homo sapiens, UniProt P00750); experiment: Influence of proteinase inhibitors on hydrolysis of Boc-Phe-Ser-Arg-MCA, single-chain form; format: biochemical
T1 construct: culturing human normal tissue derived cells such as cells derived from human embryonic kidney, intestines, lungs; endogenous in cells; host or cells: human normal tissue derived cells (e.g. human embryonic kidney or lung cells); secreted protein purified from the culture liquor in the presence of aprotinin
Experimental: (§1) To 50 µℓ of either each of the substances of this invention (100 U/mt) or urokinase (100 IU/mℓ) were added 50 µℓ of one of a number of solutions of various proteinase inhibitors and 300 µℓ of a 0.05 M tris-HCt buffer (pH 8.0) containing 0.1 M sodium chloride, and each reaction was effected at 37°C for 5 minutes. Thereafter, 100 µℓ of 0.1 mM of Boc-Phe-Ser-Arg-MCA (Peptide Institute, Inc.) was added, and each reaction was effected at 37°C.for 60 minutes. Thereafter, 0.5 mℓ of 20% acetic acid was added to terminate the reaction which was then measured for the formed aminomethylcoumarin at an excitation wavelength of 370 nm, a slit width of 2 nm, an emission wavelength of 460 nm and a slit width of 2 nm to determine the hydrolysis activity.
(§2) The concentrations (IC50) of the proteinase inhibitors which inhibit 50% of the activity of the substances of this invention were determined and the results are shown in Table 2.

[2] = molecular target: T2, double-chain plasminogen activator (Homo sapiens, UniProt P00750); experiment: Influence of proteinase inhibitors on hydrolysis of Boc-Phe-Ser-Arg-MCA, double-chain form; format: biochemical
T2 construct: endogenous in cells; host or cells: human normal tissue derived cells (e.g. human embryonic kidney or lung cells); secreted protein purified from the culture liquor and converted by enzyme (plasmin) treatment or incubation
Experimental: as §1, §2

T1 sequence (P00750 36-562): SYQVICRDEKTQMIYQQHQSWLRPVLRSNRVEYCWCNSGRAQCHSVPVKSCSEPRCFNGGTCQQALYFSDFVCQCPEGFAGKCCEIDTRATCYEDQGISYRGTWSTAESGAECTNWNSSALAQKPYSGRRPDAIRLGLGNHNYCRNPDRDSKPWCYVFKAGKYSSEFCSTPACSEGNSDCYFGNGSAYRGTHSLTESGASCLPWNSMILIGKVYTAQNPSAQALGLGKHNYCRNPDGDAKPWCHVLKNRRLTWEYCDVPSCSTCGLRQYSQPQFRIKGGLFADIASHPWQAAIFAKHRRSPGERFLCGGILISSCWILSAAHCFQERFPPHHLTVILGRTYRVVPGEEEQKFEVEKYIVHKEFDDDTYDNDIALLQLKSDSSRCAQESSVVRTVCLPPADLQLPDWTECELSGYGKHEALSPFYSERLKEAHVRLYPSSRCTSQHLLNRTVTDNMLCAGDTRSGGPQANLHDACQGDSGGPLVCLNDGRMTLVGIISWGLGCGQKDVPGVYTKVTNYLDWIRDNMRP
T2 sequence (P00750 311-562 limits assumed): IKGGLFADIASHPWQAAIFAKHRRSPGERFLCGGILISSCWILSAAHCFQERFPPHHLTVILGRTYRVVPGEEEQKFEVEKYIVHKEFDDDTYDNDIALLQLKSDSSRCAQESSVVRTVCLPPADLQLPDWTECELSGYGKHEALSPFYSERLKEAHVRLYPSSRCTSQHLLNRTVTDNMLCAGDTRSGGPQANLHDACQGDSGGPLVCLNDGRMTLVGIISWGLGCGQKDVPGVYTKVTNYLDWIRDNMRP
T2 sequence (P00750 36-310 partner limits assumed): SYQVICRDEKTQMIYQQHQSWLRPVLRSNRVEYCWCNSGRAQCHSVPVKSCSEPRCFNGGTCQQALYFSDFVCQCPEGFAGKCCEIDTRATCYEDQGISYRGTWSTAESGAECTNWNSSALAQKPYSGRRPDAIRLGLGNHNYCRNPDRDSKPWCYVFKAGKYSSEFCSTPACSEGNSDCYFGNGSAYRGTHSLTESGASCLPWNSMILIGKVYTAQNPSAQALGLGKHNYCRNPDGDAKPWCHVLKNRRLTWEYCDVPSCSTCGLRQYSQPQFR

SMILES | IC50 ([1]; Single-Chain Structure 100 U/mℓ, substrate Boc-Phe-Ser-Arg-MCA, 37°C 60 minutes, read-out: IC50) [µM] | IC50 ([2]; Double-Chain Structure 100 U/mℓ, substrate Boc-Phe-Ser-Arg-MCA, 37°C 60 minutes, read-out: IC50) [µM] | IC50 [1] [µM] | IC50 [2] [µM]
CCOC(=O)c1ccc(OC(=O)CCCCCNC(=N)N)cc1 [FOY] | 17 | 92 | – | –
CC(=O)N[C@@H](CC(C)C)C(=O)N[C@@H](CC(C)C)C(=O)N[C@H](C=O)CCCNC(=N)N [Leupeptin] | – | – | 280 | 570
